# Read-outs that look alike come from different tables or passages of the source. Marks after values point to notes of the source that are not given here.
# What was measured:
# [1] = test system: OR11A1, or the OR2M3 olfactory receptor; assay: Geonol olfactory receptor antagonist cell-based screening, inhibitory dose-response vs geonol EC80; set-up: species or system human; conditions: geonol at EC80
# [2] = test system: 1-octen-3-ol mushroom/earthy/fungal odor perception; assay: Human sensory performance of test compounds with and without 1-octen-3-ol; format: in vivo; conditions: for % Mushroom/Earthy/Fungal Odor: Test Compound Only
# [3] = test system: OR2W1 or the OR1A1 olfactory receptor; assay: 1-octen-3-ol olfactory receptor antagonist cell-based dose-response vs 1-octen-3-ol EC80; conditions: for IC50: 1-octen-3-ol at EC80; for % Inhibition: maximum inhibition normalized to baseline agonist activity
# Excerpt: Each cell line was screened with a volatile compound library for their inhibitory properties and potential 1-octen-3-ol smell inhibition.
# Single concentration monitoring of the 1-octen-3-ol induced cell activity in the presence or absence of a test compound allowed for the identification of compounds with a putative suppression or inhibitory effect.
# [4] = biological target: T1, OR51E1 olfactory receptor (Homo sapiens, UniProt Q8TCB6); assay: Butyric acid olfactory receptor antagonist cell-based dose-response vs butyric acid EC80; conditions: butyric acid at EC80; Table 5
# T1 construct: expressed in transfected cells
# T1 sequence (Q8TCB6 1-318): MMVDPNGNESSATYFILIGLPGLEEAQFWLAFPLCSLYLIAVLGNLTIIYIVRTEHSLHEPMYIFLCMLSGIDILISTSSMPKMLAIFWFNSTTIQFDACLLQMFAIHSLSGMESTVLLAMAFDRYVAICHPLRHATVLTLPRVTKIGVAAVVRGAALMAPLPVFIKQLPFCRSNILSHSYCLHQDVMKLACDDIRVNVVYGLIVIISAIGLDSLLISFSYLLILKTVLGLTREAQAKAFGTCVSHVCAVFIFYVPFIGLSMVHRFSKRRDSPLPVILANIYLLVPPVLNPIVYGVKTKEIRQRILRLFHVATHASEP
# [5] = test system: geonol malodor (earthy/moss odor) perception; assay: Sensory evaluation of geonol earthy/moss odor in iso-intense binary mixtures (glass jars); format: in vivo, human; conditions: iso-intense binary mixture
# Excerpt: (§1) Sensory Evaluation: Five 16 oz glass jars containing either REF (geonol only), geonol only control, antagonist only, mixture of geonol and isointense antagonist, or mixture of geonol and low intensity antagonist were presented to the panelists (last four samples were randomized across panelists). The panelists were asked to familiarize themselves with the earthy/moss odor quality from the REF jar first, then rate the pleasantness, earthy/moss odor intensity and overall odor intensity of the next four samples on a 0-10 linear scale. The inter-stimulus interval between the samples was two minutes to avoid adaptation.
# [6] = test system: geonol earthy/moss odor perception; assay: Human sensory performance of test compounds with and without geonol; format: in vivo; conditions: for % Earthy/Moss Odor: Test Compound Only
# Excerpt: as §1, with “adaptation. […]” for “adaptation.”
# The results are shown in Tables 16 and 17, and FIGS. 3 to 5.
# [7] = test system: geonol receptors Olfr339, Olfr1487, Olfr1A1, OR11A1, Olfr96; assay: Antagonists of geonol receptors (Example 11); format: cell-based, mouse and human; set-up: Inhibition(%): concentration or dose not given beside the values; conditions: Table 18
# Olfr742 = Olfr742 (Mus musculus, UniProt A2RTP5); assay: Indole antagonist dose-response, cAMP HTRF in HEK293T, vs indole EC80; format: cell-based; conditions: for Emax: HEK-293T, read-out: Olfr742 % Inhibition
# Protocol: (§2) Using a cell-based assay, mouse receptor Olfr738, Olfr739, Olfr740, Olfr741, 0fr742, Olfr743, Olfr744, Olfr746, Olfr748 and Olfr749 were tested in an HEK293T cell line wherein the endogenous RTP1 gene has been activated and the odorant receptor chaperone was expressed (described in WO2016201153A1). The receptor genes were tagged with a Flag-Rho tag combination. Receptor genes were co-transfected with the canonical olfactory human G-protein alpha subunit Golf gene. Co-expression of the human Golf activates the Gs transduction pathway that leads to an internal cAMP increase upon binding to the appropriate ligand (indole here). Odorant-induced activity was detected by measuring the cAMP increase in the cytosol using an HTRF based kit (CisBio, cAMP dynamic 2 kit, cat. 62AM4PEJ).
# Olfr740 = Olfr740 (Mus musculus, UniProt E9PV79); assay: as above; format: cell-based; conditions: for Emax: HEK-293T, read-out: Olfr740 % Inhibition
# Protocol: as §2
# Olfr738 = Olfr738 (Mus musculus, UniProt L7N1X7); assay: as above; format: cell-based; conditions: for Olfr738 % Inhibition: Table 22, first listing
# Protocol: as §2
# Olfr741 = Olfr741 (Mus musculus, UniProt L7N1Y5); assay: as above; format: cell-based; conditions: Table 22, first listing
# Protocol: as §2
# [8] = test system: 1-octen-3-ol receptors OR2W1, Olfr93, Olfr120, Olfr398; assay: Antagonists of 1-octen-3-ol receptors (Example 11); format: cell-based, mouse and human; set-up: Inhibition(%): concentration or dose not given beside the values; conditions: Table 19
# [9] = Low Dilution Test Compound + 1-octen-3-ol (0.15%)
# [10] = Medium Dilution Test Compound + 1-octen-3-ol (0.15%)
# [11] = Low Dilution Test Compound + Geonol (0.1%)
# [12] = Medium Dilution Test Compound + Geonol (0.1%)
# [13] = Table 22, first listing, vs indole EC80
# [14] = Table 22, first listing (r7-r45), vs indole EC80, read-out: Olfr742 IC50
# [15] = Table 22, first listing (r7-r45), vs indole EC80, read-out: Olfr740 IC50
# Olfr740, sequence (E9PV79 entry or part of it): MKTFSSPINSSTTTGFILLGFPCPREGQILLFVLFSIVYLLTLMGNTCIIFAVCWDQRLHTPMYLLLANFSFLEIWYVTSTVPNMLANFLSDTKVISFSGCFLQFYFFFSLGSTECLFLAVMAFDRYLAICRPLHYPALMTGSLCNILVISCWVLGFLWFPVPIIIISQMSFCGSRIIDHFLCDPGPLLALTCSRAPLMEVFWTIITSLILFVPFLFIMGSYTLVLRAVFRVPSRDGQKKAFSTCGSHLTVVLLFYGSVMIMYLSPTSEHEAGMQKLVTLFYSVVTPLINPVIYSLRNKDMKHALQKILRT
# Olfr742, sequence (A2RTP5 entry or part of it): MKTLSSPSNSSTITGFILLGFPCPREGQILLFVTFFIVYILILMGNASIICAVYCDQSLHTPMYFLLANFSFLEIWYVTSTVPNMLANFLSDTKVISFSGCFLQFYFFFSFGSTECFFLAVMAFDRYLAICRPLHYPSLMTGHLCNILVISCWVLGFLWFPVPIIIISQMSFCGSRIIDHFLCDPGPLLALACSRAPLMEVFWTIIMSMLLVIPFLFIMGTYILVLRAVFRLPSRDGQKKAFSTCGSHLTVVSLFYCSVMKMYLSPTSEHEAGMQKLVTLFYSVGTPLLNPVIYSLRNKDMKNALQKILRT
# Olfr738, sequence (L7N1X7 entry or part of it): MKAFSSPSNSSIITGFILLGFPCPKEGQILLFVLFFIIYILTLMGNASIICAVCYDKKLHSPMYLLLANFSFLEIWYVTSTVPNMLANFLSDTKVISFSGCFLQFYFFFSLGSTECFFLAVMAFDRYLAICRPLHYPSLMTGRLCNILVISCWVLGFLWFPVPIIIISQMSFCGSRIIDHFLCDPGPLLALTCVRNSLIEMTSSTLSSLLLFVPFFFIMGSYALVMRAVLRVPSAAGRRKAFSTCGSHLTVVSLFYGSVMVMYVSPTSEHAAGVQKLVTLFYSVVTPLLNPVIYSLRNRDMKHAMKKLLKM
# Olfr741, sequence (L7N1Y5 entry or part of it): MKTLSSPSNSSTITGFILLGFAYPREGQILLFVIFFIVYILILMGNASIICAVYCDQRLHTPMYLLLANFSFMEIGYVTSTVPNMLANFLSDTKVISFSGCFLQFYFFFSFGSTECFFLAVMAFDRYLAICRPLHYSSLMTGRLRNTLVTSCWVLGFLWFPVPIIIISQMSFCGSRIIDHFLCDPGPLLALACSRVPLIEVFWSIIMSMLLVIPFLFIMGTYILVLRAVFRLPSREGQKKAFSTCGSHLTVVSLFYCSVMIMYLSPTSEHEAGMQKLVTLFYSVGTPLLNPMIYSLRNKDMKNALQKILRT
compound,measurement,setting,value
"1-(4,8-dimethyl-12-methylidenecyclododeca-4,8-dien-1-yl)ethanone; 1-(2,6,10-trimethylcyclododeca-1,5,9-trien-1-yl)ethanone; 1-(2,6,10-trimethylcyclododeca-2,5,9-trien-1-yl)ethanone",% Inhibition,[1],20%
same,IC50,[1]; read-out: IC50,301 µM
same,% Mushroom/Earthy/Fungal Odor Remaining,[2]; [9],88.90%
same,% Mushroom/Earthy/Fungal Odor Remaining,[2]; [10],68.50%
same,% Mushroom/Earthy/Fungal Odor,[2],26.70%
same,IC50,[3],82.4 µM
same,% Inhibition,[3],113.23%
same,IC50,[4],101 µM
"3-methyl-4-(2,6,6-trimethylcyclohex-2-en-1-yl)but-3-en-2-one; 1-(2,6,6-trimethylcyclohex-2-en-1-yl)pent-1-en-3-one",% Mushroom/Earthy/Fungal Odor Remaining,[2]; [9],75.80%
same,% Mushroom/Earthy/Fungal Odor Remaining,[2]; [10],53.50%
same,% Mushroom/Earthy/Fungal Odor,[2],20.00%
same,% Remaining in human sensory tests,[5],38* %
same,% Earthy/Moss Odor Remaining,[6]; [11],75.80%
same,% Earthy/Moss Odor Remaining,[6]; [12],56.20%
same,% Earthy/Moss Odor,[6],29.40%
CC1CCCCCCCCCCCCC(=O)C1 (racemic) [(+−)-3-methylcyclopentadecanone],% Mushroom/Earthy/Fungal Odor,[2],11.60%
same,IC50,[3],44 µM
same,% Inhibition,[3],113.50%
same,IC50,[4],159 µM
"CC1C(C)(C)C2=C(C(=O)CCC2)C1(C)C (centres unmarked) [1,1,2,3,3-pentamethyl-2,5,6,7-tetrahydroinden-4-one]",IC50,[7],268 µM
same,Inhibition(%),[7],71%
same,% Mushroom/Earthy/Fungal Odor,[2],25.90%
same,IC50,[3],51.2 µM
same,% Inhibition,[3],118.44%
same,Emax,Olfr742; [13],120%
same,IC50,Olfr742; [14],249 µM
same,Emax,Olfr740; [13],217%
same,IC50,Olfr740; [15],12 µM
same,IC50,"Olfr738; Table 22, first listing (r7-r45), vs indole EC80, read-out: Olfr738 IC50",21.3 µM
same,Olfr738 % Inhibition,Olfr738; vs indole EC80,61.33%
same,IC50,Olfr741,2.56 mM
same,Olfr741 % Inhibition,Olfr741,140.61%
"O=C1CCCCCCCCCCC(=O)OCCO1 [1,4-dioxacyclohexadecane-5,16-dione]",IC50,[7],136 µM
same,Inhibition(%),[7],33%
same,% Mushroom/Earthy/Fungal Odor,[2],14.90%
same,IC50,[3],24.2 µM
same,% Inhibition,[3],116.54%
"CC1C(=O)c2ccccc2C1(C)C (centres unmarked) [2,3,3-trimethyl-2~{H}-inden-1-one]",% Mushroom/Earthy/Fungal Odor Remaining,[2]; [9],94.40%
same,% Mushroom/Earthy/Fungal Odor Remaining,[2]; [10],57.90%
same,% Mushroom/Earthy/Fungal Odor,[2],16.50%
"CC1CC(C)(c2ccccc2)CO1 (centres unmarked) [2,4-dimethyl-4-phenyloxolane]",Emax,Olfr740; [13],100%
same,IC50,Olfr740; [15],51.2 µM
"CC1=CC(C)C(C=O)CC1 (centres unmarked) [2,4-dimethylcyclohex-3-enecarbaldehyde]",% Remaining in human sensory tests,[5],45* %
same,IC50,[3],18.8 µM
same,% Inhibition,[3],107.99%
Cc1ccc(CC(C)C=O)cc1 (centres unmarked) [2-methyl-3-(4-methylphenyl) propanal],Emax,Olfr742; [13],37.2%
same,IC50,Olfr742; [14],88.2 µM
"CC(=CC=O)CCC(C)=C(C)C [3,6,7-trimethylocta-2,6-dienal]",% Mushroom/Earthy/Fungal Odor,[2],16.40%
same,% Earthy/Moss Odor,[6],26.90%
"CC(C)=CCCC(C)=CC=O [3,7-dimethylocta-2,6-dienal]",% Mushroom/Earthy/Fungal Odor,[2],22.30%
same,% Remaining in human sensory tests,[5],42* %
same,% Earthy/Moss Odor,[6],27.60%
CC(C)(C)c1ccc(CCC=O)cc1 [3-(4-tert-butylphenyl)propanal],% Inhibition,[1],50%
same,IC50,[1]; read-out: IC50,316 µM
CC(CC=O)CCc1ccccc1 (centres unmarked) [3-methyl-5-phenylpentanal],Emax,Olfr740; [13],110%
same,IC50,Olfr740; [15],16.1 µM
CC(CC=O)c1ccccc1 (centres unmarked) [3-phenylbutanal],Emax,Olfr742; [13],113%
same,IC50,Olfr742; [14],44.8 µM
"CC(=O)C=CC1=C(C)CCCC1(C)C [4-(2,6,6-trimethylcyclohexen-1-yl)but-3-en-2-one]",IC50,[7],289 µM
same,Inhibition(%),[7],51%
same,% Remaining in human sensory tests,[5],43* %
same,% Earthy/Moss Odor,[6],41.80%
same,IC50,[8],269 µM
same,Inhibition(%),[8],66%
"CC(C)=CCCC(C)=CCCc1ccncc1 [4-(4,8-dimethylnona-3,7-dienyl)pyridine]",% Mushroom/Earthy/Fungal Odor,[2],44.40%
same,IC50,[3],134 µM
same,% Inhibition,[3],111.87%
"CC(CC=O)CCCC(C)(C)O (centres unmarked) [7-hydroxy-3,7-dimethyloctanal]",% Remaining in human sensory tests,[5],39* %
"C[C@@H](CC=O)CCCC(C)(C)O [(3~{R})-7-hydroxy-3,7-dimethyloctanal]",% Mushroom/Earthy/Fungal Odor Remaining,[2]; [9],70.00%
same,% Mushroom/Earthy/Fungal Odor Remaining,[2]; [10],56.50%
same,% Mushroom/Earthy/Fungal Odor,[2],20.70%
same,% Earthy/Moss Odor Remaining,[6]; [11],68.20%
same,% Earthy/Moss Odor Remaining,[6]; [12],57.20%
same,% Earthy/Moss Odor,[6],30.30%
CC(=O)OC(C)CC(C)(C)c1ccccc1 (centres unmarked) [(4-methyl-4-phenylpentan-2-yl) acetate],IC50,[7],627 µM
same,Inhibition(%),[7],84%
same,% Mushroom/Earthy/Fungal Odor,[2],52.70%
same,IC50,[3],61.7 µM
same,% Inhibition,[3],98.90%
same,IC50,[4],59.2 µM
same,IC50,[8],62 µM
same,Inhibition(%),[8],119%
"C=C(C)[C@@H]1CCC2=CC(=O)C[C@@H](C)[C@]2(C)C1 [(4R,4aS,6R)-4,4a-dimethyl-6-prop-1-en-2-yl-3,4,5,6,7,8-hexahydronaphthalen-2-one]",% Inhibition,[1],50%
same,IC50,[1]; read-out: IC50,486 µM
same,% Earthy/Moss Odor,[6],70.60%
same,IC50,[8],36.5 µM
same,Inhibition(%),[8],39%
"CC(C)=CCC[C@@H](C)CC#N [(−)-(R)-3,7-dimethyl-6-octenenitrile]",% Inhibition,[1],10%
same,IC50,[1]; read-out: IC50,300 µM
CCCCCOC(=O)Cc1ccccc1 [Amyl Phenylacetate],IC50,Olfr742,141 µM
same,Emax,Olfr742,18%
same,IC50,Olfr740,40.4 µM
same,Emax,Olfr740,61%
same,IC50,Olfr738,82.7 µM
same,Olfr738 % Inhibition,Olfr738; vs indole EC80,18.44%
"Cc1ccc(C(C)C)cc1O [Compound 2-methyl-5-propan-2-ylphenol, 2-methyl-5-propan-2-ylphenol]",IC50,[1],215 µM
same,% Earthy/Moss Odor,[6],40.10%
"CCCCCC1CCCC1=O (centres unmarked) [Compound 2-pentylcyclopentan-1-one, 2-pentylcyclopentan-1-one]",% Remaining in human sensory tests,[5],78%
same,% Earthy/Moss Odor,[6],40.90%
"CCC=CCC=CC=CC(=O)OCC [ethyl deca-2,4,7-trienoate]",% Mushroom/Earthy/Fungal Odor,[2],56.50%
same,% Earthy/Moss Odor,[6],62.20%
"CC(C)Cc1ccc2ccccc2n1 [isobutylquinoline, 2-ISOBUTYLQUINOLINE]",% Inhibition,[1],45%
same,% Mushroom/Earthy/Fungal Odor,[2],27.30%
same,IC50,[3],> 600 µM
same,% Inhibition,[3],30.14%
same,% Earthy/Moss Odor,[6],37.80%
CCCCCC/C=C/C=O [nonylenic aldehyde],% Inhibition,[1],30%
same,IC50,[1]; read-out: IC50,151 µM
O=C1CCCCCCCCCCCCCCO1 [oxacyclohexadecan-2-one],IC50,[7],291 µM
same,Inhibition(%),[7],34%
same,% Mushroom/Earthy/Fungal Odor,[2],13.90%
same,% Earthy/Moss Odor,[6],18.70%
CC(=O)OCCc1ccccc1 [phenyl ethyl acetate],% Remaining in human sensory tests,[5],47* %
same,% Earthy/Moss Odor Remaining,[6]; [11],97.10%
same,% Earthy/Moss Odor Remaining,[6]; [12],65.80%
same,% Earthy/Moss Odor,[6],35.30%

# From US20230233425A1, “USE OF VOLATILE COMPOSITIONS TO LIMIT OR ELIMINATE THE PERCEPTION OF MALODOR” (Firmenich SA, priority 2017, published 2023)
